# “Also recorded” adds a separate entry of the source.
# How the values were obtained:
# B/ShenZhen/155/2005 = test: CPE reduction assay, B/SZ/155; assay type: cell-based; conditions: Influenza B virus, B/SZ/155, CPE
# [1] = Cytotoxicity (CellTiter-Glo), MDCK cells; conditions: dog
# [2] = system: A/JiangXi-DongHu/312/2006 (H3N2); test: microbe, parasite or virus in culture; assay type: cell-based, influenza A virus; conditions: Influenza A virus, H3N2
# [3] = system: A/Puerto Rico/8/34 (H1N1); test: CPE reduction assay, PR/8 (H1N1); assay type: cell-based; conditions: Influenza A virus, PR/8 (H1N1), CPE; read-out: EC50
# [4] = system: H5N1 pseudotype virus (A/VietNam/1203/2004 (H5N1) HA/NA); test: microbe, parasite or virus in culture; assay type: cell-based; conditions: Influenza A virus, H5N1, read-out: inhibition rate
# A/WSN/33(H1N1) virus = test: Time-of-addition experiment (viral NP by Western blotting); assay type: cell-based, influenza A virus
# in vitro [5] = conditions: human
# in vitro [6] = conditions: dog
# VSV pseudotype virus = test: microbe, parasite or virus in culture; assay type: cell-based; conditions: Vesicular stomatitis virus, read-out: inhibition rate
# [7] = system: different influenza viruses; test: CPE reduction assays on different influenza viruses; assay type: cell-based, influenza A virus and influenza B virus; conditions: PR/8, LN/1109, JX/312, HN/1222, B/SZ/155
# [8] = target: influenza virus (WSN strain) hemagglutinin protein (HA) (Influenza A virus, UniProt P03454); test: Hemagglutination inhibition (HI) assay; conditions: chicken erythrocytes
# Chain of influenza virus (WSN strain) hemagglutinin protein (HA) (P03454 18-342 limits assumed): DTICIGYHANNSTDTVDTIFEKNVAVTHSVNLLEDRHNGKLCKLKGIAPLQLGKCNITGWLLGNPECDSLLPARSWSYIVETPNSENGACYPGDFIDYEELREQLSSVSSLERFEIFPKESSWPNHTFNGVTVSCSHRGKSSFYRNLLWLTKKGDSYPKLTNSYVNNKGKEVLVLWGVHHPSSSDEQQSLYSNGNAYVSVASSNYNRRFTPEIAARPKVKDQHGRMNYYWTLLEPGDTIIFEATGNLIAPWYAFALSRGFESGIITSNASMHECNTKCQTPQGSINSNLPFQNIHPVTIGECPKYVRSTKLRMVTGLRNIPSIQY
# Chain of influenza virus (WSN strain) hemagglutinin protein (HA) (P03454 344-565 partner limits assumed): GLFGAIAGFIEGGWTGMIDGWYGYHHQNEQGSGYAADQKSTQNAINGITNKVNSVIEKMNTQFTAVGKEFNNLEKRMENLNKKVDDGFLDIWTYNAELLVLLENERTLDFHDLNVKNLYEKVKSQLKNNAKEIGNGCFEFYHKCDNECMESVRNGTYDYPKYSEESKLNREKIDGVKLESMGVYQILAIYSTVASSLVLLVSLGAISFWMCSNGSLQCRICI
# A/WSN/33 (H1N1) virus = test: Plaque inhibition assay; assay type: cell-based, influenza A virus; conditions: for Plaque number: 0 μM = 100
# [9] = system: influenza virus A/WSN/33(H1N1); test: Cytopathic effect (CPE) inhibition assay, WSN virus in MDCK cells; assay type: cell-based; conditions: for Viral Infectivity (%): WSN MOI=1, 48 h, lower = better inhibition
# [10] = system: H1N1 pseudotype virus (A/WSN/33 (H1N1) HA/NA); test: microbe, parasite or virus in culture; assay type: cell-based; conditions: Influenza A virus, H1N1pp, DMSO set to zero, read-out: inhibition rate
# MDCK cells = conditions: dog, 48 h
# in vitro [11] = conditions: human; remark: listed apart in the source
structure (smiles),measurement,setting,value
"NC12CC3CC(CC(C3)C1)C2 [Amantadine, amantadine, reference compound]",EC50,B/ShenZhen/155/2005,> 83.2 µM
same,CC50 at 48 h,[1],> 200 µM
same,EC50,[2],8.58 ± 1.65 µM
same,EC50,[3],7.41 ± 0.21 µM
"CC1(C)CC[C@]2(C(=O)O[C@H]3OC(CO)[C@@H](O)C(O)C3O)C(O)C[C@]3(C)C(=CC[C@@H]4[C@@]5(C)CC[C@H](O)C(C)(C)[C@@H]5CC[C@]43C)[C@@H]2C1 (stereo partly drawn) [Compound Q9, 3β,16α-dihydroxy-olean-12-en-28-oic acid-28-O-(β-D-galactoside)]",inhibition at 50 µM,[4],16.8%
same,EC50,B/ShenZhen/155/2005,36.2 ± 7.21 µM
same,NP level reduction compared with the DMSO control,A/WSN/33(H1N1) virus; interval 0-2 h,~62%
same,NP level reduction compared with the DMSO control,A/WSN/33(H1N1) virus; interval 0-10 h,around 75%
same,antiviral activity,"A/WSN/33(H1N1) virus; intervals 2-5, 5-8, and 8-10 h",no antiviral activity was detected
same,stage of viral lifecycle acted on,A/WSN/33(H1N1) virus; time-of-addition,acted on the entry step of influenza virus into cells; also recorded: effective at the early stage (0-2 h) of the viral lifecycle
same,CC50 at 48 h,in vitro [5],> 100 µM
same,EC50,[2],16.9 ± 5.38 µM
same,CC50 at 48 h,in vitro [6],> 100 µM
same,inhibition at 50 µM,VSV pseudotype virus,3.8%
same,inhibition effect on different influenza viruses,[7],various extent of inhibition effect
same,EC50,[3],17.5 ± 0.43 µM
same,effect on binding of viruses to cellular receptors,[8],interfered the binding of viruses to cellular receptors
same,IC50,"A/WSN/33 (H1N1) virus; Influenza A virus, WSN, MDCK cells, read-out: IC50 (plaque formation reduction)",< 5 µM
same,Plaque number,A/WSN/33 (H1N1) virus; Q9 5 μM,42.9 ± 5.8
same,Plaque number,A/WSN/33 (H1N1) virus; Q9 10 μM,21.8 ± 2.5
same,Plaque number,A/WSN/33 (H1N1) virus; Q9 25 μM,14.1 ± 1.7
same,Plaque number,A/WSN/33 (H1N1) virus; Q9 50 μM,7.6 ± 2.5
same,Plaque number,A/WSN/33 (H1N1) virus; Q9 100 μM,0
same,EC50,"[9]; H1N1|WSN, MDCK, 48 h",48.7 µM
same,inhibition at 50 µM,"[9]; MDCK, Table 9, 50 μM, protective rate against cytopathy, read-out: IAV inhibition rate (%)",53.6 ± 6.16%
same,Viral Infectivity (%),"[9]; Table 6, 50 μM",21.1%
same,Viral Infectivity (%),"[9]; Table 8, 50 μM",21.1%
same,anti-influenza virus activity,"[9]; WSN, CPE, 50 μM",significant inhibitory effect on influenza virus; also recorded: significant inhibition activity against influenza virus
same,inhibition at 50 µM,[10],61.9%
same,CC50,MDCK cells,> 200 µM
same,Cell viability (%),MDCK cells; 50 μM,100.3%
same,Cell viability(%),MDCK cells; 50 μM,89%
same,CC50 at 48 h,in vitro [11],> 100 µM

# Source: patent publication US9920088B2, “Triterpene derivative and its anti-influenza use” (Peking University, priority 2012, dated 2018)
